This assay relates to Akt. Kind of assay: phospho-Akt in NCI-H596 hu-HGF-Tg-SCID xenograft tumors (immunoblot). In kind it is in vivo, human. The conditions noted are these: MetMAb 30 mg/kg 24 h, erlotinib 150 mg/kg 6 h prior to harvest, average of 5 animals. How it is done:
NCI-H596 hu-HGF-Tg-SCID xenograft tumors: NCI-H596 xenografts were established in hu-HGF-Tg-SCID mice as described in Example 4. Tumors were allowed to grow to 200-300 mm^3 prior to treatment. Dosing was performed as described in Table 8. Briefly, MetMAb (30 mg/kg) or MetMAb buffer was dosed at time zero hours (0 hr) and methylcellulose tween vehicle (MCT) or erlotinib (150 mg/kg) was dosed at time 18 hours (18 hr). Mice were euthanized and tumors and plasma collected at time 24 hours (24 hr). Tumors were snap frozen in liquid nitrogen and then kept at −70° C. until they were processed for immunoprecipitation and immunoblotting.
Immunoprecipitations and Immunoblotting: To process tumors for protein analysis, tumors were first homogenized using a glass dounce with lysis buffer (Cell Signaling Technology, Inc., Danvers, Mass.), supplemented with 1 mM PMSF, additional protease inhibitor cocktail, and phosphatase inhibitor cocktail I and II (Sigma, Inc., St. Louis, Mo.). […] Protein concentrations were determined using the BCA™ Protein Assay Kit (Pierce, Inc., Rockford, Ill.) and samples were immunoblotted. […] Samples were then analyzed by SDS-PAGE and immunoblotting. […] Immunoblots were imaged and phospho-protein levels were quantified and normalized to total protein levels (e.g. pEGFR over total EGFR) using an Odyssey imager (LI-COR Biosciences, Lincoln, Nebr.). […]
For orientation: In xenograft studies the graft and the host belong to different species.

Where “and” joins values, the source holds several entries; their conditions need not be identical. Equal entries are not always repeated.

Take `C#Cc1cccc(Nc2ncnc3cc(OCCOC)c(OCCOC)cc23)c1` [erlotinib, N-(3-ethynylphenyl)-6,7-bis(2-methoxyethoxy)-4-quinazolinamine]: the “pAkt/total Akt” value (listed as Erlotinib) was 45% (+/−25.7%) % of vehicle control and 45 (±25.7) % of vehicle control.

B1: MetMAb: Anti-c-met monovalent monoclonal antibody MetMAb (rhuOA5D5v2) (WO2007/063816) (antibody, chains of the INN, looked up, V domains shown)
VH: EVQLVESGGGLVQPGGSLRLSCAASGYTFTSYWLHWVRQAPGKGLEWVGMIDPSNSDTRFNPNFKDRFTISADTSKNTAYLQMNSLRAEDTAVYYCATYRSYVTPLDYWGQGTLVTVSS
VL: DIQMTQSPSSLSASVGDRVTITCKSSQSLLYTSSQKNYLAWYQQKPGKAPKLLIYWASTRESGVPSRFSGSGSGTDFTLTISSLQPEDFATYYCQQYYAYPWTFGQGTKVEIK
modifications: one-armed
B1: the “pAkt/total Akt” value was 72% (+/−27.9%) % of vehicle control and 72 (±27.9) % of vehicle control.

For the origin of these results see patent publication US20160303127A1, “COMBINATION THERAPY WITH C-MET AND EGFR ANTAGONISTS” (Genentech, Inc., priority 2008, published 2016).
